Reference: ChEMBL document CHEMBL3124777, “Synthesis and biological evaluation of thiazoline derivatives as new antimicrobial and anticancer agents” (Eur J Med Chem, 2014)
In brackets after ≈: the same amount, converted by molar mass.

Tests used:
[1] = system: Aspergillus parasiticus; assay: Antimicrobial activity against Aspergillus parasiticus NRRL 465 after 48 to 72 hrs by microbroth dilution method; type: functional
[2] = system: Fusarium culmorum; assay: Antimicrobial activity against wild type Fusarium culmorum after 48 to 72 hrs by microbroth dilution method; type: functional
[3] = system: Escherichia coli; assay: Antimicrobial activity against Escherichia coli ATCC 25922 after 18 to 24 hrs by microbroth dilution method; type: functional
[4] = system: Fusarium solani; assay: Antimicrobial activity against Fusarium solani NRRL 13414 after 48 to 72 hrs by microbroth dilution method; type: functional
[5] = system: Aspergillus ochraceus; assay: Antimicrobial activity against Aspergillus ochraceus NRRL 3174 after 48 to 72 hrs by microbroth dilution method; type: functional
[6] = system: Micrococcus luteus; assay: Antimicrobial activity against Micrococcus luteus NRLL B-4375 after 18 to 24 hrs by microbroth dilution method; type: functional
[7] = system: Candida albicans; assay: Antimicrobial activity against Candida albicans ATCC 22019 after 18 to 24 hrs by microbroth dilution method; type: functional
[8] = system: NIH3T3; assay: Cytotoxicity against mouse NIH/3T3 cells after 24 hrs by MTT assay; type: cell-based; settings: NIH3T3, 24 h
[9] = system: Listeria monocytogenes; assay: Antimicrobial activity against Listeria monocytogenes ATCC 7644 after 18 to 24 hrs by microbroth dilution method; type: functional
[10] = system: Fusarium verticillioides; assay: Antimicrobial activity against Fusarium moniliforme NRRL 1866 after 48 to 72 hrs by microbroth dilution method; type: functional
[11] = system: Penicillium chrysogenum; assay: Antimicrobial activity against Penicillium chrysogenum NRRL 1951 after 48 to 72 hrs by microbroth dilution method; type: functional
[12] = system: Staphylococcus aureus; assay: Antimicrobial activity against Staphylococcus aureus NRRL B-767 after 18 to 24 hrs by microbroth dilution method; type: functional
[13] = system: Trichoderma harzianum; assay: Antimicrobial activity against Trichoderma harzianum NRRL 20565 after 48 to 72 hrs by microbroth dilution method; type: functional
[14] = system: Bacillus subtilis; assay: Antimicrobial activity against Bacillus subtilis NRS-744 after 18 to 24 hrs by microbroth dilution method; type: functional
[15] = system: Pseudomonas aeruginosa; assay: Antimicrobial activity against Pseudomonas aeruginosa […] after 18 to 24 hrs by microbroth dilution method; type: functional

Row | Structure (SMILES) | MIC [1] | MIC [2] | MIC [3] | MIC [4] | MIC [5] | MIC [6] | MIC [7] | IC50 [8] | MIC [9] | MIC [10] | MIC [11] | MIC [12] | MIC [13] | MIC [14] | MIC [15]
1 | O=C(CSc1nnnn1-c1ccccc1)N/N=c1/scc(-c2ccc([N+](=O)[O-])cc2)n1-c1ccccc1 | 250 µg/mL (≈ 471 µM) | 250 µg/mL (≈ 471 µM) | 250 µg/mL (≈ 471 µM) | 250 µg/mL (≈ 471 µM) | 250 µg/mL (≈ 471 µM) | 500 µg/mL (≈ 942 µM) | 250 µg/mL (≈ 471 µM) | 14.3 µg/mL (≈ 27 µM) | 250 µg/mL (≈ 471 µM) | 250 µg/mL (≈ 471 µM) | 250 µg/mL (≈ 471 µM) | 250 µg/mL (≈ 471 µM) | 125 µg/mL (≈ 236 µM) | 250 µg/mL (≈ 471 µM) | 250 µg/mL (≈ 471 µM)
2 | Cc1nnc(SCC(=O)N/N=c2/scc(-c3ccc(C#N)cc3)n2-c2ccccc2)s1 | 250 µg/mL (≈ 538 µM) | 250 µg/mL (≈ 538 µM) | 250 µg/mL (≈ 538 µM) | 250 µg/mL (≈ 538 µM) | 250 µg/mL (≈ 538 µM) | 250 µg/mL (≈ 538 µM) | 250 µg/mL (≈ 538 µM) | < 3.9 µg/mL | 250 µg/mL (≈ 538 µM) | 250 µg/mL (≈ 538 µM) | 250 µg/mL (≈ 538 µM) | 250 µg/mL (≈ 538 µM) | 125 µg/mL (≈ 269 µM) | 250 µg/mL (≈ 538 µM) | 250 µg/mL (≈ 538 µM)
3 | Cn1cnnc1SCC(=O)N/N=c1/scc(-c2ccc(Br)cc2)n1-c1ccccc1 | 250 µg/mL (≈ 499 µM) | 250 µg/mL (≈ 499 µM) | 250 µg/mL (≈ 499 µM) | 250 µg/mL (≈ 499 µM) | 250 µg/mL (≈ 499 µM) | 250 µg/mL (≈ 499 µM) | 250 µg/mL (≈ 499 µM) | 58.3 µg/mL (≈ 116 µM) | 250 µg/mL (≈ 499 µM) | 250 µg/mL (≈ 499 µM) | 250 µg/mL (≈ 499 µM) | 250 µg/mL (≈ 499 µM) | 125 µg/mL (≈ 249 µM) | 250 µg/mL (≈ 499 µM) | 250 µg/mL (≈ 499 µM)
4 | COc1ccc(-c2cs/c(=N/NC(=O)CSc3nncn3C)n2-c2ccccc2)cc1 | 250 µg/mL (≈ 552 µM) | 250 µg/mL (≈ 552 µM) | 250 µg/mL (≈ 552 µM) | 250 µg/mL (≈ 552 µM) | 250 µg/mL (≈ 552 µM) | 250 µg/mL (≈ 552 µM) | 250 µg/mL (≈ 552 µM) | 167 µg/mL (≈ 368 µM) | 250 µg/mL (≈ 552 µM) | 250 µg/mL (≈ 552 µM) | 250 µg/mL (≈ 552 µM) | 250 µg/mL (≈ 552 µM) | 250 µg/mL (≈ 552 µM) | 250 µg/mL (≈ 552 µM) | 250 µg/mL (≈ 552 µM)
5 | Cn1cnnc1SCC(=O)N/N=c1/scc(-c2ccc([N+](=O)[O-])cc2)n1-c1ccccc1 | 250 µg/mL (≈ 535 µM) | 250 µg/mL (≈ 535 µM) | 250 µg/mL (≈ 535 µM) | 250 µg/mL (≈ 535 µM) | 250 µg/mL (≈ 535 µM) | 125 µg/mL (≈ 267 µM) | 250 µg/mL (≈ 535 µM) | 133 µg/mL (≈ 285 µM) | 250 µg/mL (≈ 535 µM) | 250 µg/mL (≈ 535 µM) | 250 µg/mL (≈ 535 µM) | 250 µg/mL (≈ 535 µM) | 250 µg/mL (≈ 535 µM) | 125 µg/mL (≈ 267 µM) | 250 µg/mL (≈ 535 µM)
6 | CC(=O)N1CCN(c2ccc(OCC3COC(Cn4ccnc4)(c4ccc(Cl)cc4Cl)O3)cc2)CC1 (stereo not drawn) [KETOCONAZOLE] | 125 µg/mL (≈ 235 µM) | 500 µg/mL (≈ 941 µM) |  | 500 µg/mL (≈ 941 µM) | 250 µg/mL (≈ 470 µM) |  | 250 µg/mL (≈ 470 µM) |  |  | 500 µg/mL (≈ 941 µM) | 7.8 µg/mL (≈ 14.7 µM) |  | 250 µg/mL (≈ 470 µM) |  | 
7 | Cc1nnc(SCC(=O)N/N=c2/scc(-c3ccc([N+](=O)[O-])cc3)n2-c2ccccc2)s1 | 250 µg/mL (≈ 516 µM) | 250 µg/mL (≈ 516 µM) | 250 µg/mL (≈ 516 µM) | 250 µg/mL (≈ 516 µM) | 250 µg/mL (≈ 516 µM) | 250 µg/mL (≈ 516 µM) | 250 µg/mL (≈ 516 µM) | 177 µg/mL (≈ 365 µM) | 250 µg/mL (≈ 516 µM) | 250 µg/mL (≈ 516 µM) | 250 µg/mL (≈ 516 µM) | 500 µg/mL (≈ 1030 µM) | 250 µg/mL (≈ 516 µM) | 250 µg/mL (≈ 516 µM) | 250 µg/mL (≈ 516 µM)
8 | N#Cc1ccc(-c2cs/c(=N/NC(=O)CSc3ncccn3)n2-c2ccccc2)cc1 | 250 µg/mL (≈ 562 µM) | 250 µg/mL (≈ 562 µM) | 250 µg/mL (≈ 562 µM) | 250 µg/mL (≈ 562 µM) | 250 µg/mL (≈ 562 µM) | 250 µg/mL (≈ 562 µM) | 250 µg/mL (≈ 562 µM) | < 3.9 µg/mL | 250 µg/mL (≈ 562 µM) | 250 µg/mL (≈ 562 µM) | 250 µg/mL (≈ 562 µM) | 250 µg/mL (≈ 562 µM) | 250 µg/mL (≈ 562 µM) | 250 µg/mL (≈ 562 µM) | 125 µg/mL (≈ 281 µM)
